Results on 17 compounds are retold here after ChEMBL document CHEMBL3621144, “Small-Molecule Allosteric Modulators of the Protein Kinase PDK1 from Structure-Based Docking” (J Med Chem, 2015).

Series [1] has as its target T1, 3-phosphoinositide-dependent protein kinase 1 (Homo sapiens, UniProt O15530).
T1 sequence (O15530 whole entry): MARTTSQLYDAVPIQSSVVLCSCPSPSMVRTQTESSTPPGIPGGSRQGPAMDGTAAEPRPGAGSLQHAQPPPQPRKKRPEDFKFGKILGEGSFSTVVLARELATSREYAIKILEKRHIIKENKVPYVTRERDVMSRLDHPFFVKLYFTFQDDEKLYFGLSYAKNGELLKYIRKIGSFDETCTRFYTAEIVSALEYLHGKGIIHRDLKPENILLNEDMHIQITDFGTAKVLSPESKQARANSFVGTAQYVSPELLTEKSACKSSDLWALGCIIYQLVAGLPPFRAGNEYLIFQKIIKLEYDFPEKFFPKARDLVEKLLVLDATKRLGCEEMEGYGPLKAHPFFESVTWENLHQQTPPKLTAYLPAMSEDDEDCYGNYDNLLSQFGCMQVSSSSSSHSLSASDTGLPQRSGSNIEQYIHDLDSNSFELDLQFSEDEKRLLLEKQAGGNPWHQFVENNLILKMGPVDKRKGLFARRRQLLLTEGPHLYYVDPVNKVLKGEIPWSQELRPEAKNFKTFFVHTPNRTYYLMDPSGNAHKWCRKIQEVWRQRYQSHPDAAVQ
Put plainly: Displacement of PIFtide from human PDK1 PIF pocket after 1 hr by fluorescence polarization assay. (In general: In fluorescence polarisation assays a small probe gives low polarisation when free and higher when bound to something large.)

Series [2] addresses T1, 3-phosphoinositide-dependent protein kinase 1. Put plainly: Activation of human PDK1 catalytic activity using T308tide as substrate after 1 hr by phosphor imager analysis in presence of [gamma-32P]-ATP relative to control.
Series [3] addresses Cruzipain (Trypanosoma cruzi) (UniProt P25779). Put plainly: Inhibition of Trypanosoma cruzi Cruzain using Z-FR-AMC as substrate preincubated for 5 mins followed by substrate addition measured for 5 mins by spectrofluorimetric analysis.
Series [4] is described as follows: Induction of colloidal aggregates formation in Tris/NaCl/Pluronic F-68 buffer at 100 uM by dynamic light scattering method. Type of series: physicochemical.
Series [5] can be described thus: Induction of colloidal aggregates formation in Tris/NaCl/MgCl2/CHAPS/beta-mercaptoethanol buffer at 200 uM by dynamic light scattering method. The format is physicochemical.
The nature of series [6]: Induction of colloidal aggregates formation in Tris/NaCl/Pluronic F-68 buffer at 300 uM by dynamic light scattering method. The format is physicochemical.

Active and inactive are the calls of the source. The rule behind the calls is not given here.

Chain of Cruzipain (Trypanosoma cruzi) (P25779 123-467 limits assumed): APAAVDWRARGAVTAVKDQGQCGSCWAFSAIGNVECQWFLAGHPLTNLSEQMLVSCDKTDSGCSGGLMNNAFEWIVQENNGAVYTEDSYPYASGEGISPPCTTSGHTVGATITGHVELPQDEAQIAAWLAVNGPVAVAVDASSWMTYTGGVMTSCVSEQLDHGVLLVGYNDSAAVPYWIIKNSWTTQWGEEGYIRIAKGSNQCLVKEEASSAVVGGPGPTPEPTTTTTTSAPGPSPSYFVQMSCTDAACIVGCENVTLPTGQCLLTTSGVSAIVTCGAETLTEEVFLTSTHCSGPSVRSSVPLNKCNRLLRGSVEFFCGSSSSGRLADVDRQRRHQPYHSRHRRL

Regarding `O=C(O)Cn1c(SCCOc2ccccc2)nc2ccccc21`, the Kd – broadly, the concentration at which binding is half-saturated – in series [1] was above 200 µM.

For `Cc1cccc(OCCSc2nc3ccccc3n2CC(=O)O)c1C`, the Kd in series [1] came to 110 µM.

In series [1], `O=C(O)Cn1c(SCCOc2ccccc2F)nc2ccccc21` yielded a dissociation constant Kd above 200 µM.

`O=P(O)(O)[C@H](NCCc1ccc(F)cc1)c1ccc(F)cc1` came in with a Kd in series [1] above 200 µM.

As to `COc1ccccc1OCCSc1nc2ccccc2n1CC(=O)O`, in series [1], the Kd is above 200 µM.

Consider `Cc1ccc(OCCSc2nc3ccccc3n2CC(=O)O)c(C)c1`, for which the EC50 – broadly, the concentration that produces a half-maximal response – in series [2] was 40 µM. Further, the inhibition result in series [3] is “inactive”. In addition, the Kd in series [1] came out at 39.1 µM. Also, the Activity result in series [4], in series [5] and in series [6] was “Not Active” in each case.

Turning to `O=C(O)Cn1c(SCc2ccccc2)nc2ccccc21`, the Kd in series [1] was above 200 µM.

For the compound `O=P(O)(O)[C@H](NC[C@@H]1CCCc2ccccc21)c1ccc(F)cc1`, in series [2], the EC50 was found to be 50 µM. For the same compound, in series [3], the inhibition result is “inactive”. Further, the Kd in series [1] is 39.4 µM. The Activity entry in series [5] and in series [6] was “Not Active” each time.

As to `Cc1cccc(OCCn2c(SCC(=O)O)nc3ccccc32)c1`, the Kd in series [1] turned out to be 75 µM.

`Cc1ccccc1OCCSc1nc2ccccc2n1CCC(=O)O` had a Kd in series [1] of 74 µM.

`O=C(O)C/C(=C/c1cccc(C(F)(F)F)c1)c1nc2ccccc2o1` yielded a Kd in series [1] above 200 µM.

The compound `Cc1ccccc1OCCSc1nc2ccccc2n1CC(=O)O` yielded a Kd in series [1] of 50 µM.

`C[C@@H](CN[C@H](c1ccccc1)P(=O)(O)O)c1ccccc1` registered a Kd in series [1] of 150 µM.

For the compound `O=C(O)CSc1nc2ccccc2n1CCOc1ccccc1`, binding in series [1] was characterised by a dissociation constant (Kd) of 120 µM.

The compound `C[C@@H](CN[C@H](c1ccc(F)c(F)c1)P(=O)(O)O)c1ccccc1` displayed a Kd in series [1] of 83 µM.

Compound `O=C(O)Cn1c(SCc2cccc3ccccc23)nc2ccccc21` had a Kd in series [1] of 120 µM.

Take `C[C@H](CN[C@H](c1ccc(F)cc1)P(=O)(O)O)c1ccccc1`: the Kd in series [1] was above 200 µM.
